Test results from patent US10112943B2, “Substituted imidazoles as gamma secretase modulators” (Janssen Pharmaceutica NV, priority 2012, dated 2018).

Legend:
Parameters in all cases: species or system mouse
Conditions in all cases: dose 30 mg/kg oral dosing, soluble fraction, untreated animals (Ctrl) set at 100, typical protocol 4 h after dose
Aβ42 = assay: In vivo efficacy: brain levels of soluble Aβ42 in non-transgenic rodents (MSD electrochemiluminescence)
Source text: (§1) To determine whether acute administration of an Aβ42 lowering agent would reduce Aβ42 levels in vivo, non-transgenic rodents, e.g. mice or rats were used. Animals treated with the Aβ42 lowering agent were examined and compared to those untreated or treated with vehicle and brain levels of soluble Aβ42, Aβ40, Aβ38, and Aβ37 were quantitated by Meso Scale Discovery's (MSD) electrochemiluminescence detection technology. Treatment periods varied from hours (h) to days and were adjusted based on the results of the Aβ42 lowering once a time course of onset of effect could be established.
(§2) A typical protocol for measuring Aβ42 lowering in vivo is shown but it is only one of many variations that could be used to optimize the levels of detectable Aβ. […] After 4 h, the animals were sacrificed and Aβ42 levels were analysed.
(§3) Blood was collected by decapitation and exsanguinations in EDTA-treated collection tubes. […] The left hemisphere was stored at −18° C. for quantitative analysis of test compound levels. […]
(§4) Mouse brains from non-transgenic animals were resuspended in 8 volumes of 0.4% DEA (diethylamine)/50 mM NaCl containing protease inhibitors (Roche-11873580001 or 04693159001) per gram of tissue, e.g. for 0.158 g brain, add 1.264 ml of 0.4% DEA. […] Nine parts of supernatant were neutralized with 1 part 0.5 M Tris-HCl pH 6.8 and used to quantify Aβ. […]

Aβ38 = assay: In vivo efficacy: brain levels of soluble Aβ38 in non-transgenic rodents (MSD electrochemiluminescence)
Source text: To determine whether acute administration of an Aβ38 increasing agents would increase Aβ38 levels in vivo, non-transgenic rodents, e.g. mice or rats were used. Animals treated with the Aβ38 increasing agents were examined and compared to those untreated or treated with vehicle and brain levels of soluble Aβ42, Aβ40, Aβ38, and Aβ37 were quantitated by MSD electrochemiluminescence detection technology. Treatment periods varied from hours (h) to days and were adjusted based on the results of the Aβ38 increase once a time course of onset of effect could be established.
A typical protocol for measuring Aβ38 increase in vivo is shown but it is only one of many variations that could be used to optimize the levels of detectable Aβ. […] After 4 h, the animals were sacrificed and Aβ38 levels were analysed.
as §3, §4

Aβ40 = assay: In vivo efficacy: brain levels of soluble Aβ40 in non-transgenic rodents (MSD electrochemiluminescence)
Source text: as §1, §2, §3, §4

SMILES: Cc1cn(-c2ccc3n(c2=O)C[C@@H]2CC[C@@H](Cc4cc(C(F)(F)F)cc(C(F)(F)F)c4)N2C3=O)cn1 (single isomer, unassigned) [Compound 4, 3-[[3,5-bis(trifluoromethyl)phenyl]methyl]-2,3,11,11a-tetrahydro-8-(4-methyl-1H-imidazol-1-yl)-1H-pyrido[1,2-a]pyrrolo[1,2-d]pyrazine-5,9-dione ((3S, 11aS) or (3R, 11aR))]
- Aβ42 (% vs Ctrl) _Mean (Aβ42): 47 % vs Ctrl
- Aβ38 (% vs Ctrl) _Mean (Aβ38): 136 % vs Ctrl
- Aβ40 (% vs Ctrl) _Mean (Aβ40): 69 % vs Ctrl
